The values below come from patent publication US9850247B2 (Almac Discovery Limited, priority 2013, dated 2017).

The target of this experiment is T1, Wee-1 kinase (Homo sapiens, UniProt P30291).
T1 construct: purchased Invitrogen PV3817
Nature of the experiment: Measurement of Wee-1 kinase activity (ADP-Glo luminescent kit). In kind it is biochemical. On the procedure:
Method 1: Measurement of Wee-1 Kinase Activity
In the measurement of Wee-1 activity, a commercial peptide Poly(Lys Tyr (4:1)) hydrobromide was purchased from Sigma Aldrich and used as the substrate. Activated Wee-1 kinase was purchased from Invitrogen (PV3817) and an ADP-Glo luminescent kit was purchased from Promega.
All reactions took place in […] volumes in reaction buffer containing 40 mM Tris-HCl and 20 mM magnesium chloride, supplemented with 0.1 mg/mL bovine serum albumin and 2 mM DTT. Compounds were serially diluted in buffer and 5 μL of each concentration pipetted into a white 384 well plate (Sigma Aldrich M6186). A 5 μL aliquot of the Wee-1 enzyme was added to each well and the plate centrifuged for 1 min to ensure mixing of the enzyme and inhibitor.
The plate was incubated at room temperature for 30 minutes before the addition of 2.0 μg/mL of substrate and 30 μM ATP in a 5 μL aliquot. The plate was centrifuged for one minute and incubated for 1 h at RT.
15 µL of ADP-Glo stop reagent was added to each well to quench the reaction and deplete unconverted ATP. The plate was incubated for a further 40 min in the dark at RT.
30 μL of ADP-Glo kinase detection reagent was added to each well, converting ADP to ATP, catalysing the generation of luciferin by luciferase. The plate was shaken for 1 min, and incubated in the dark for an additional hour.
Luminescence from each well was detected using the Biotek Synergy4 HD plate reader and the percentage inhibition of kinase activity calculated for each inhibitor tested. Positive (kinase only) and negative (no kinase) controls were added to each plate to ensure specific interaction of kinase and inhibitor. The IC50 concentration for each inhibitor was calculated by plotting the percentage kinase inhibition against concentration of inhibitor and the curve generated by non-linear regression fitting.
In general terms: In ADP-Glo the light output rises with the ADP produced.

Bounds are passed on as bounds.

T1 sequence (P30291 whole entry): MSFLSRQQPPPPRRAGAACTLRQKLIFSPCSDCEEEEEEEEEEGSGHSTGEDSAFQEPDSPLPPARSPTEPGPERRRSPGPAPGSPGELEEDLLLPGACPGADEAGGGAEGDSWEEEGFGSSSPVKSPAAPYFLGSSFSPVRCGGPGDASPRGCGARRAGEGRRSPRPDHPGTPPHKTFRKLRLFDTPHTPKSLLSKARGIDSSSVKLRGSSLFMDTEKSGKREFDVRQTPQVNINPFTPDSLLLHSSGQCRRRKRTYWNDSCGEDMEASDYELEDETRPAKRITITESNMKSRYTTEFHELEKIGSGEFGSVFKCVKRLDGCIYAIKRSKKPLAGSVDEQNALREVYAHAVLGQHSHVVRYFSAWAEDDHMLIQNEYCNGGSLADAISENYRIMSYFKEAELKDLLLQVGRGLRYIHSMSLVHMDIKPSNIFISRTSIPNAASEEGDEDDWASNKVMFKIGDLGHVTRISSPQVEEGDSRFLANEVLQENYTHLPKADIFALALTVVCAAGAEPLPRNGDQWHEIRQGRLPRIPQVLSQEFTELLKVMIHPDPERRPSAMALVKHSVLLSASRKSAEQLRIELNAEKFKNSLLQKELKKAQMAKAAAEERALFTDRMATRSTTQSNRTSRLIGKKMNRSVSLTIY

The term IC50 denotes the point on the concentration scale where inhibition reaches its midpoint. As to `CN1CN(c2c(Cl)cccc2Cl)C(=O)c2cnc(Nc3ccc(N4CC5(CNC5)C4)cc3)nc21` [Example 51, 7-((4-(2,6-diazaspiro[3.3]heptan-2-yl)phenyl)amino)-3-(2,6-dichlorophenyl)-1-methyl-2,3-dihydropyrimido[4,5-d]pyrimidin-4(1H)-one], the IC50 was 10 to 100 nM.
With `C[C@@H]1CN[C@@H](C)CN1c1ccc(Nc2ncc3c(n2)N(C)CN(c2c(F)cccc2Cl)C3=O)cc1` [Example 93, 3-(2-chloro-6-fluorophenyl)-7-((4-((2R,5S)-2,5-dimethylpiperazin-1-yl)phenyl)amino)-1-methyl-2,3-dihydropyrimido[4,5-d]pyrimidin-4(1H)-one] the figure was 10 to 100 nM; with `C[C@@H]1CN(c2ccc(Nc3ncc4c(n3)N(C3CC3)CN(c3c(Cl)cccc3Cl)C4=O)cc2)CCN1` [Example 85, (R)-1-cyclopropyl-3-(2,6-dichlorophenyl)-7-((4-(3-methylpiperazin-1-yl)phenyl)amino)-2,3-dihydropyrimido[4,5-d]pyrimidin-4(1H)-one], 10 to 100 nM; with `COc1cc(Nc2ncc3c(n2)N(C)CN(c2c(Cl)cccc2Cl)C3=O)ccc1N1C[C@@H]2C[C@H]1CN2` [Example 82, 7-((4-((1S,4S)-2,5-diazabicyclo[2.2.1]heptan-2-yl)-3-methoxyphenyl)amino)-3-(2,6-dichlorophenyl)-1-methyl-2,3-dihydropyrimido[4,5-d]pyrimidin-4(1H)-one], 10 to 100 nM.
Take `C[C@@H]1CN[C@@H](C)CN1c1ccc(Nc2ncc3c(n2)N(C)CN(c2ccccc2Cl)C3=O)cc1` [Example 98, 3-(2-chlorophenyl)-7-((4-((2R,5S)-2,5-dimethylpiperazin-1-yl)phenyl)amino)-1-methyl-2,3-dihydropyrimido[4,5-d]pyrimidin-4(1H)-one]: the IC50 was in the range of 10 to 100 nM.
`CN1CN(c2c(F)cccc2Cl)C(=O)c2cnc(Nc3cccc(CO)c3)nc21` [Example 56, 3-(2-chloro-6-fluorophenyl)-7-((3-(hydroxymethyl)phenyl)amino)-1-methyl-2,3-dihydropyrimido[4,5-d]pyrimidin-4(1H)-one]: the IC50 is at least 100 nM.
On to `C[C@@H]1CN[C@@H](C)CN1c1ccc(Nc2ncc3c(n2)N(C)CN(c2c(Cl)cccc2Cl)C3=O)cc1F` [Example 81, 3-(2,6-dichlorophenyl)-7-((4-((2R,5S)-2,5-dimethylpiperazin-1-yl)-3-fluorophenyl)amino)-1-methyl-2,3-dihydropyrimido[4,5-d]pyrimidin-4(1H)-one], for which the IC50 was 10 to 100 nM.
With `CN1CN(c2c(Cl)cccc2Cl)C(=O)c2cnc(Nc3ccc(N4CCNC(C(F)(F)F)C4)cc3)nc21` (centres unmarked) [Example 62, 3-(2,6-dichlorophenyl)-1-methyl-7-((4-(3-(trifluoromethyl)piperazin-1-yl)phenyl)amino)-2,3-dihydropyrimido[4,5-d]pyrimidin-4(1H)-one], the IC50 was in the range of 10 to 100 nM.
For the compound `C[C@@H]1CN[C@@H](C)CN1c1ccc(Nc2ncc3c(n2)N(C)CN(c2ccccc2Cl)C3=O)cc1F` [Example 110, 3-(2-chlorophenyl)-7-((4-((2R,5S)-2,5-dimethylpiperazin-1-yl)-3-fluorophenyl)amino)-1-methyl-2,3-dihydropyrimido[4,5-d]pyrimidin-4(1H)-one], the IC50 was 10 to 100 nM.
To `CN1CN(c2c(Cl)cccc2Cl)C(=O)c2cnc(Nc3ccc4c(c3)C3CCC(C4)N3)nc21` (centres unmarked) [Example 70, 3-(2,6-dichlorophenyl)-1-methyl-7-((6,7,8,9-tetrahydro-5H-5,8-epiminobenzo[7]annulen-3-yl)amino)-2,3-dihydropyrimido[4,5-d]pyrimidin-4(1H)-one] belongs 10 to 100 nM; to `Cc1cccc(Cl)c1N1CN(C)c2nc(Nc3ccc(N4CCN[C@H](C)C4)cc3)ncc2C1=O` [Example 100, (R)-3-(2-chloro-6-methylphenyl)-1-methyl-7-((4-(3-methylpiperazin-1-yl)phenyl)amino)-2,3-dihydropyrimido[4,5-d]pyrimidin-4(1H)-one], 10 to 100 nM; to `CN1CN(c2c(Cl)cccc2Cl)C(=O)c2cnc(Nc3ccc(N4CCOCC4)c(CO)c3)nc21` [Example 73, 3-(2,6-dichlorophenyl)-7-((3-(hydroxymethyl)-4-morpholinophenyl)amino)-1-methyl-2,3-dihydropyrimido[4,5-d]pyrimidin-4(1H)-one], 10 to 100 nM.
Regarding `C[C@@H]1CN(C)[C@@H](C)CN1c1ccc(Nc2ncc3c(n2)N(C)CN(c2c(Cl)cccc2Cl)C3=O)cc1` [Example 45, 3-(2,6-dichlorophenyl)-1-methyl-7-((4-((2R,5S)-2,4,5-trimethylpiperazin-1-yl)phenyl)amino)-2,3-dihydropyrimido[4,5-d]pyrimidin-4(1H)-one], the IC50 lay within 10 to 100 nM.
In the case of `CN1CN(c2ccccc2Cl)C(=O)c2cnc(Nc3ccc(N4CCNCC4)cc3)nc21` [Example 24, 3-(2-Chlorophenyl)-1-methyl-7-((4-(piperazin-1-yl)phenyl)amino)-2,3-dihydropyrimido[4,5-d]pyrimidin-4(1H)-one], the IC50 was in the range of 10 to 100 nM.
As to `CN1CN(c2c(Cl)cccc2Cl)C(=O)c2cnc(Nc3ccc(N4CC5COCC(C4)N5C)cc3)nc21` [Example 71, 3-(2,6-dichlorophenyl)-1-methyl-7-((4-(9-methyl-3-oxa-7,9-diazabicyclo[3.3.1]nonan-7-yl)phenyl)amino)-2,3-dihydropyrimido[4,5-d]pyrimidin-4(1H)-one], the IC50 lay within 10 to 100 nM.
In the case of `C[C@@H]1CN(c2ccc(Nc3ncc4c(n3)N(C)CN(c3c(Cl)cccc3Cl)C4=O)cc2)C[C@H](C)N1C` [Example 52, 3-(2,6-dichlorophenyl)-1-methyl-7-((4-((3R,5S)-3,4,5-trimethylpiperazin-1-yl)phenyl)amino)-2,3-dihydropyrimido[4,5-d]pyrimidin-4(1H)-one], the IC50 was 10 to 100 nM.
As to `COc1cc(Nc2ncc3c(n2)N(C)CN(c2c(Cl)cccc2Cl)C3=O)ccc1C1CCN(C)CC1` [Example 183, 3-(2,6-dichlorophenyl)-7-((3-methoxy-4-(1-methylpiperidin-4-yl)phenyl)amino)-1-methyl-2,3-dihydropyrimido[4,5-d]pyrimidin-4(1H)-one], the IC50 was at most 10 nM.
For `CN1CN(c2c(Cl)cccc2Cl)C(=O)c2cnc(Nc3ccc(N4CCN(C)C(C(F)(F)F)C4)cc3)nc21` (centres unmarked) [Example 68, 3-(2,6-dichlorophenyl)-1-methyl-7-((4-(4-methyl-3-(trifluoromethyl)piperazin-1-yl)phenyl)amino)-2,3-dihydropyrimido[4,5-d]pyrimidin-4(1H)-one], the IC50 is at least 100 nM.
In the case of `COCc1cc(Nc2ncc3c(n2)N(C)CN(c2c(Cl)cccc2Cl)C3=O)ccc1N1CCN(C)CC1` [Example 69], the IC50 fell in the range of 10 to 100 nM.
As to `CC(=O)N1CCN(c2ccc(Nc3ncc4c(n3)N(C)CN(c3c(Cl)cccc3Cl)C4=O)cc2)CC1` [Example 125, 7-((4-(4-acetylpiperazin-1-yl)phenyl)amino)-3-(2,6-dichlorophenyl)-1-methyl-2,3-dihydropyrimido[4,5-d]pyrimidin-4(1H)-one], the IC50 lay within 10 to 100 nM.
Take `CN1CN(c2c(Cl)cccc2Cl)C(=O)c2cnc(Nc3ccc(N4CCN(C)[C@H](CO)C4)c(F)c3)nc21` [Example 50, (S)-3-(2,6-dichlorophenyl)-7-((3-fluoro-4-(3-(hydroxymethyl)-4-methylpiperazin-1-yl)phenyl)amino)-1-methyl-2,3-dihydropyrimido[4,5-d]pyrimidin-4(1H)-one]: the IC50 is 10 to 100 nM.
With `CN1CN(c2ccccc2Cl)C(=O)c2cnc(Nc3ccc(N4CC5C[C@H]4CN5)cc3)nc21` (stereo in doubt) [Example 104, 7-((4-((1S,4R)-2,5-diazabicyclo[2.2.1]heptan-2-yl)phenyl)amino)-3-(2-chlorophenyl)-1-methyl-2,3-dihydropyrimido[4,5-d]pyrimidin-4(1H)-one] the figure was at least 100 nM; with `C[C@@H]1CN(c2ccc(Nc3ncc4c(n3)N(C)CN(c3c(Cl)cccc3Cl)C4=O)cc2F)CCN1C` [Example 47, (R)-3-(2,6-dichlorophenyl)-7-((4-(3,4-dimethylpiperazin-1-yl)-3-fluorophenyl)amino)-1-methyl-2,3-dihydropyrimido[4,5-d]pyrimidin-4(1H)-one], 10 to 100 nM.
With `Cc1cccc(Cl)c1N1CN(C)c2nc(Nc3ccc(N4CCNCC4)cc3)ncc2C1=O` [Example 92, 3-(2-chloro-6-methylphenyl)-1-methyl-7-((4-(piperazin-1-yl)phenyl)amino)-2,3-dihydropyrimido[4,5-d]pyrimidin-4(1H)-one] the figure was 10 to 100 nM.
To `COc1ccc(CN2CN(c3c(Cl)cccc3Cl)C(=O)c3cnc(Nc4ccc(N5CCNCC5)cc4)nc32)cc1` [Example 8, 3-(2,6-Dichlorophenyl)-1-(4-methoxybenzyl)-7-((4-(piperazin-1-yl)phenyl)amino)-2,3-dihydropyrimido[4,5-d]pyrimidin-4(1H)-one] belongs at least 100 nM; to `COc1cc(Nc2ncc3c(n2)N(C)CN(c2c(Cl)cccc2Cl)C3=O)ccc1C1CCNCC1` [Example 182, 3-(2,6-dichlorophenyl)-7-((3-methoxy-4-(piperidin-4-yl)phenyl)amino)-1-methyl-2,3-dihydropyrimido[4,5-d]pyrimidin-4(1H)-one], at most 10 nM.
